The record followed here is patent US20210267996A1, “Compounds for inhibition of inflammation” (Children`s Medical Center Corporation, priority 2018, published 2021).

The assay has as its system LPS-induced sepsis in C57BL/6 mice. The assay can be described thus: LPS-induced sepsis in mice, survival. Format: in vivo, mouse. Here is the method:
Mice. 8-week-old female C57BL/6 wild-type mice were purchased from The Jackson Laboratory and maintained at the SPF facility at Harvard Medical School. All mouse experiments were conducted using protocols approved by the Animal Care and Use Committees of Boston Children's Hospital and Harvard Medical School.
Drug administration and LPS-induced sepsis in mice. […] In the indicated group of mice in FIG. 5h, copper gluconate (0.15 mg/kg) was administered intraperitoneally 6 hr prior to the first injection of DSF. Sepsis was induced in C57BL/6 mice (8-10 weeks old) by intraperitoneal injection of LPS (E. coli O111:B4) at indicated concentrations. In some experiments, mice were treated with copper gluconate (0.15 mg/kg) or vehicle by intraperitoneal injection 5 hr before LPS challenge and then given DSF (50 mg/kg) intraperitoneally dissolved in sesame oil or vehicle 4 hr before and just before LPS challenge (15 mg/kg intraperitoneally). Peritoneal cells were collected by rinsing the peritoneal cavity with ice cold PBS containing 3% FBS 6 hr after LPS challenge. To measure cytokines, blood samples were collected by tail vein bleed 12 hr post LPS challenge and allowed to clot at room temperature. Sera obtained after centrifugation at 2,000×g for 10 min were analysed for inflammatory cytokines by ELISA.
Cell death was determined by CytoTox96 assay. […] Statistical analysis was performed using the log-rank test (In FIGS. 14, 16, 17, mice/group). […] Serum was obtained 12 hrs post LPS challenge. Shown are mean±s.d. […] Statistical analysis was performed using the log-rank test (8 mice/group).

As for `CCN(CC)C(=S)SSC(=S)N(CC)CC` [C-23, Tetraethylthiuram disulfide], the survival result is, setting by setting: (LPS 15 mg/kg, 50 mg/kg ip 24 and 4 hrs before, 96 hrs) “all the disulfiram-treated mice survived”; (LPS 25 mg/kg, 50 mg/kg ip 24 and 4 hrs before) 5 of 8; (LPS 25 mg/kg, 50 mg/kg ip post LPS, with copper gluconate 0.15 mg/kg) 2 of 8; (LPS 25 mg/kg, 50 mg/kg ip post LPS, without copper) “died”; (LPS 50 mg/kg, 50 mg/kg ip 24 and 4 hrs before) 1 of 8. The “survival of Casp11−/− mice” value (LPS challenge) is on record as “did not significantly affect the survival”. The “survival of Gsdmd−/− mice” value (LPS challenge) is listed as “did not significantly affect the survival”. Moreover, for the setting “lethal LPS challenge”, the “survival of Casp1−/− mice” value is “protected”.
